According to article PMC10058949, “Effect of N-Terminal Peptide Modifications on In Vitro and In Vivo Properties of ^177Lu-Labeled Peptide Analogs Targeting CCK2R” (Pharmaceutics, 2023):
Like-named read-outs stand apart in the source and are kept apart here. Non-standard residues stand in square brackets, D forms with d. Residues, ends and D or L forms follow the SMILES beside them. *: point of attachment. DOTA = O=C(O)CN1CCN(CC(=O)O)CCN(CC(=O)*)CCN(CC(=O)O)CC1; 1Nal = N[C@@H](Cc1cccc2ccccc12)C(=O)O; NMeNle = CCCC[C@H](NC)C(=O)O

Tests used:
[1] = Octanol/PBS distribution coefficient (logD7.4); assay type: physicochemical; settings: pH 7.4
Procedure: (§1) The stability studies with the ^177Lu-labeled peptide analogs were carried out at a concentration of 0.5 nmol peptide/mL in fresh human serum (n = 2) for up to 24 h. A mixture of 0.05 nmol/mL of the radiolabeled peptides in PBS and octanol (1/1, v/v) was used to evaluate the octanol/PBS distribution coefficient (logD7.4; n = 8). To determine the protein binding in human serum by Sephadex G-50 size-exclusion chromatography (GE Healthcare Illustra, Little Chalfont, UK), a 25 µL serum sample was used for different time points after incubation. All steps were performed according to previously published protocols.

[2] = tested on: human serum proteins; assay: Protein binding in human serum by Sephadex G-50 size-exclusion chromatography; assay type: in vitro ADME
Procedure: as §1

[3] = Biodistribution 4 h p.i. in A431-CCK2R/A431-mock xenografted BALB/c nude mice; assay type: in vivo; settings: female, BALB/c nude, mouse, in vivo, iv, 20 pmol, total radioactivity
Procedure: (§2) Then, after 7–11 days, when visible tumor xenografts were formed, groups of 5 mice were injected intravenously via a lateral tail vein with ~0.5 MBq of radiolabeled peptide, corresponding to 20 pmol of peptide, in a total volume of ~150 µL in PBS/0.5% BSA. Using an additional mouse per group, a blocking study was performed by co-injecting a 1000-fold molar excess of the respective peptide analog (20 nmol) together with the radiolabeled peptide. For quantification, a 1:1, 1:10 and 1:50 standard was prepared using aliquots of the injection solution mixed with PBS/0.5% BSA. Mice were euthanized by cervical dislocation 4 h after injection. Subsequently, a blood sample was collected, and different tissues were dissected. All samples, as well as the rest of the body were weighed, and the activity measured in the γ-counter together with the standard. Results were expressed as percentage of injected activity per gram of tissue (%IA/g).

[4] = Biodistribution blocking experiment with 1000-fold excess of non-radiolabeled peptide; assay type: in vivo, mice; settings: female, BALB/c nude, mouse, in vivo, iv, total radioactivity, blocking
Procedure: as §2

[5] = target: T1, CCK2R (Homo sapiens, UniProt P32239); assay: Competition assay against [125I][3-iodo-Tyr12,Leu15]gastrin-I on A431-CCK2R cells; assay type: binding
T1 construct: expressed in transfected cells; host or cells: A431 human epidermoid carcinoma cells (A431-CCK2R, from Dr. Luigi Aloj)
T1 sequence (P32239 1-447): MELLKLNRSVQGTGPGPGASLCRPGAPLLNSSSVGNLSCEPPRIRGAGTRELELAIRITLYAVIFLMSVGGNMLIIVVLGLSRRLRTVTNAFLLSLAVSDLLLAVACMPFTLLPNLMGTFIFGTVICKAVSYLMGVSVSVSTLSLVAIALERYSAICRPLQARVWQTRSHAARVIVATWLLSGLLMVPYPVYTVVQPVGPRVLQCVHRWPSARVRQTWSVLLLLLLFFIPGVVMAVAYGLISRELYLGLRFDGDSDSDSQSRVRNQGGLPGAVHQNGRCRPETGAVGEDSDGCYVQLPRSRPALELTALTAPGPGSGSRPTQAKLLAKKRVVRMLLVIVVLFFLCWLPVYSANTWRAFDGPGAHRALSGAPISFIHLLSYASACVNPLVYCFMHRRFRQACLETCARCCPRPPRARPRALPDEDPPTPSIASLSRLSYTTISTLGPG
Procedure: Binding experiments were performed using 96-well filter plates (MultiScreenHTS-FB, Merck Group, Darmstadt, Germany) washed with 10 mM TRIS/139 mM NaCl pH 7.4 (2 × 250 µL). For the experiment, 0.4 × 10^6 A431-CCK2R cells in 100 µL binding buffer (20 mM HEPES buffer with pH 7.4 and 10 mM MgCl2, 14 µM bacitracin, and 0.5% BSA) were added to each well. Fifty µL of [^125I][3-iodo-Tyr^12,Leu^15]gastrin-I (~25,000 cpm) and 50 µL of different dilutions of the peptide conjugates (reaching final concentrations of 0.0003–1000 nM) were added and the cells were incubated in triplicates for 1 h at room temperature. […] Incubation was interrupted by filtration of the medium and rapid rinsing with ice-cold 10 mM TRIS/139 mM NaCl pH 7.4 (2 × 200 µL). The filters were collected and counted in a γ-counter (2480 Wizard2 3”, PerkinElmer Life Sciences and Analytical Sciences, formerly Wallac Oy, Turku, Finland). Half-maximal inhibitory concentration (IC50) values were calculated following nonlinear regression with Origin software (Microcal Origin 6.1, Northampton, MA, USA).

CCCC[C@@H](C(=O)N[C@@H](CC(=O)O)C(=O)N[C@@H](Cc1cccc2ccccc12)C(N)=O)N(C)C(=O)[C@H](Cc1c[nH]c2ccccc12)NC(=O)CNC(=O)[C@H](Cc1ccc(O)cc1)NC(=O)[C@H](C)NC(=O)[C@@H](CCC(=O)O)NC(=O)[C@@H](CCC(=O)O)NC(=O)[C@@H](CCC(=O)O)NC(=O)[C@@H](CCC(=O)O)NC(=O)[C@@H](CCC(=O)O)NC(=O)[C@@H](CCC(=O)O)NC(=O)CN1CCN(CC(=O)O)CCN(CC(=O)O)CCN(CC(=O)O)CC1 [[^177Lu]Lu-1, metal not drawn] ({DOTA}-[dE][dE][dE][dE][dE][dE]AYGW[NMeNle]D[1Nal]-NH2)
logD [1]: -4.18 ± 0.24
change in binding to human serum proteins compared to [177Lu]Lu-DOTA-MGS5 [2]: increased by a factor of two
tissue uptake at 4 h ([3]; uptake in A431-CCK2R xenografts): 22.2 ± 6.23 %ID/g
tissue uptake at 4 h ([3]; uptake in A431-mock xenografts): 0.14 ± 0.04 %ID/g
tissue uptake at 4 h ([3]; uptake in blood): 0.02 %ID/g
tissue uptake at 4 h ([3]; uptake in femur): 0.21 ± 0.05 %ID/g
tissue uptake at 4 h ([3]; uptake in heart): 0.06 ± 0.01 %ID/g
tissue uptake at 4 h ([3]; uptake in intestine): 0.42 ± 0.07 %ID/g
tissue uptake at 4 h ([3]; uptake in kidneys): 21.6 ± 2.11 %ID/g
tissue uptake at 4 h ([3]; uptake in liver): 2.48 ± 0.39 %ID/g
tissue uptake at 4 h ([3]; uptake in lung): 0.12 ± 0.04 %ID/g
tissue uptake at 4 h ([3]; uptake in muscle): 0.04 ± 0.02 %ID/g
tissue uptake at 4 h ([3]; uptake in pancreas): 1.25 ± 0.27 %ID/g
tissue uptake at 4 h ([3]; uptake in spleen): 1.86 ± 0.62 %ID/g
tissue uptake at 4 h ([3]; uptake in stomach): 4.77 ± 1.1 %ID/g
tissue uptake at 4 h ([4]; uptake in A431-CCK2R xenograft): 0.45 %ID/g
tissue uptake at 4 h ([4]; uptake in A431-mock xenograft): 0.12 %ID/g
tissue uptake at 4 h ([4]; uptake in blood): 0.03 %ID/g
tissue uptake at 4 h ([4]; uptake in femur): 0.18 %ID/g
tissue uptake at 4 h ([4]; uptake in heart): 0.05 %ID/g
tissue uptake at 4 h ([4]; uptake in lung): 0.06 %ID/g
tissue uptake at 4 h ([4]; uptake in pancreas): 0.05 %ID/g
tissue uptake at 4 h ([4]; uptake in stomach): 0.06 %ID/g

CCCC[C@@H](C(=O)N[C@@H](CC(=O)O)C(=O)N[C@@H](Cc1cccc2ccccc12)C(N)=O)N(C)C(=O)[C@H](Cc1c[nH]c2ccccc12)NC(=O)CCNC(=O)CC(O)CNC(=O)CC(O)CNC(=O)CN1CCN(CC(=O)O)CCN(CC(=O)O)CCN(CC(=O)O)CC1 (stereo partly drawn) [Peptide 2, DOTA-(GABOB)2-βAla-Trp-(N-Me)Nle-Asp-1Nal-NH2]
IC50 ([5]; A431-CCK2R cells, 1 h room temperature, n = 3, read-out: IC50): 0.24 nM

CCCC[C@@H](C(=O)N[C@@H](CC(=O)O)C(=O)N[C@@H](Cc1cccc2ccccc12)C(N)=O)N(C)C(=O)[C@H](Cc1c[nH]c2ccccc12)NC(=O)CNC(=O)[C@H](Cc1ccc(O)cc1)NC(=O)[C@H](C)NC(=O)[C@@H](CCC(=O)O)NC(=O)[C@@H](CCC(=O)O)NC(=O)[C@@H](CCC(=O)O)NC(=O)[C@@H](CCC(=O)O)NC(=O)[C@@H](CCC(=O)O)NC(=O)[C@@H](CCC(=O)O)NC(=O)CN1CCN(CC(=O)O)CCN(CC(=O)O)CCN(CC(=O)O)CC1 [Peptide 1, DOTA-(DGlu)6-Ala-Tyr-Gly-Trp-(N-Me)Nle-Asp-1Nal-NH2] ({DOTA}-[dE][dE][dE][dE][dE][dE]AYGW[NMeNle]D[1Nal]-NH2)
IC50 [5]: 0.18 ± 0.02 nM
